Measured values published in US11912693B2, “Compounds for modulating S1P1 activity and methods of using the same” (TREVENA, INC., priority 2017, dated 2024).

Tests used:
[1] = biological target: T1, human sphingosine-1-phosphate receptor 1 (S1P1) (Homo sapiens (Human), UniProt P21453); test: Inhibition of cAMP production (HTRF cAMP HiRange), S1P1 CHO-K1 cells; format: cell-based; conditions: for Emax: CHO-K1, efficacy (SPAN) normalized to fingolimod, read-out: hS1P1 cAMP SPAN; for hS1P1 cAMP pEC50: inhibition of cAMP production, S1P1 CHO-K1 cells
Method in brief: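 CHO-K1 cells stably co-expressing human S1P1 (C-terminal Prolink tag) and EA-β-arrestin2 were grown in AssayComplete Media 6 at 37° C. and 5% CO2, plated, and incubated overnight. Agonist-driven inhibition of intracellular cAMP was read by TR-FRET with the HTRF cAMP HiRange kit on a PheraStar reader. Potency is pEC50, and efficacy (SPAN) is normalized to fingolimod.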
Target sequence in this assay (P21453 whole entry, looked up): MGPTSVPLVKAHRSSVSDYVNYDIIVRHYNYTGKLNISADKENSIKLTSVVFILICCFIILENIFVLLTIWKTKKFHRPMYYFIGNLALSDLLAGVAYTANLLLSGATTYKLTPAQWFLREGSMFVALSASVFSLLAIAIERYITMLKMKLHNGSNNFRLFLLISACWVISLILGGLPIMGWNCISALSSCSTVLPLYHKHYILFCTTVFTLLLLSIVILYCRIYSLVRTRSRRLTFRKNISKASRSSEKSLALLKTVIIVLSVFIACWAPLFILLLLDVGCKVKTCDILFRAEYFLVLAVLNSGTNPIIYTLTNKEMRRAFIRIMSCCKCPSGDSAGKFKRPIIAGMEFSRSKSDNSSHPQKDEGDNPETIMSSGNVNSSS

[2] = biological target: T1, human sphingosine-1-phosphate receptor 1 (S1P1); test: β-Arrestin2 recruitment assay (PathHunter), S1P1 CHO-K1 cells; format: cell-based; conditions: for Emax: CHO-K1, efficacy (SPAN) normalized to fingolimod, read-out: hS1P1 B-arrestin2 SPAN; for hS1P1 B-arrestin2 pEC50: β-arrestin2 recruitment, S1P1 CHO-K1 cells
Method in brief: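 Enzyme-fragment complementation read-out: agonist-driven β-arrestin2 binding to ProLink-tagged human S1P1 in stable CHO-K1 cells restores β-galactosidase, measured 1 h at room temperature after a 60 min 37° C. compound incubation. Potency as pEC50, efficacy relative to fingolimod (SPAN).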
Target sequence in this assay (P21453 whole entry, looked up): as above
Target sequence in this assay (P32121 whole entry partner, looked up): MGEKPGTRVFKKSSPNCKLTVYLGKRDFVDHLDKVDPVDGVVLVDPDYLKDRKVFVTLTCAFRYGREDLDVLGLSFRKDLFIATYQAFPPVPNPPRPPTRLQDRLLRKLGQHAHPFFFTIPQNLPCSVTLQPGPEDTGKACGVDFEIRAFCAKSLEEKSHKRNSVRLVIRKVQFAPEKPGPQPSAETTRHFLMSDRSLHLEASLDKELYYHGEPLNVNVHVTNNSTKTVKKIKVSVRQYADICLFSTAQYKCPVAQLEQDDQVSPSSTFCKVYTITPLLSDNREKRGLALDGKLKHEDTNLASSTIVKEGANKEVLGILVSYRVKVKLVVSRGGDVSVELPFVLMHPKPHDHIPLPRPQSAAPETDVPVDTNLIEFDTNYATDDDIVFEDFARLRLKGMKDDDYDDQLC

Row | Emax [1] | hS1P1 cAMP pEC50 [1] | Emax [2] | hS1P1 B-arrestin2 pEC50 [2] | Compound
1 | < 75% | <6.5 | < 75% | <5 | CC(C)CCn1nnc2cc(-c3nc(-c4ccc(C(F)(F)F)c(F)c4)no3)ccc21 [Compound 122, 5-{3-[3-fluoro-4-(trifluoromethyl)phenyl]-1,2,4-oxadiazol-5-yl}-1-(3-methylbutyl)-1H-1,2,3-benzotriazole]
2 | < 75% | <6.5 | < 75% | <5 | COc1cccc(-c2noc(-c3ccc4c(c3)nnn4C3CCCC3)n2)n1 [Compound 124, 1-cyclopentyl-5-[3-(6-methoxypyridin-2-yl)-1,2,4-oxadiazol-5-yl]-1H-1,2,3-benzotriazole]
3 | < 75% | <6.5 | < 75% | <5 | CC(C)n1nnc2cc(-c3noc(C4CCC(F)(F)CC4)n3)ccc21 [Compound 125, 5-[5-(4,4-difluorocyclohexyl)-1,2,4-oxadiazol-3-yl]-1-(propan-2-yl)-1H-1,2,3-benzotriazole]
4 | < 75% | <6.5 | < 75% | <5 | Cc1cc(C)cc(Cc2noc(-c3ccc4c(c3)nnn4C(C)C)n2)c1 [Compound 126, 5-{3-[(3,5-dimethylphenyl)methyl]-1,2,4-oxadiazol-5-yl}-1-(propan-2-yl)-1H-1,2,3-benzotriazole]
5 | < 75% | <6.5 | < 75% | <5 | CC(C)n1nnc2cc(-c3noc(C4CCCCC4)n3)ccc21 [Compound 127, 5-(5-cyclohexyl-1,2,4-oxadiazol-3-yl)-1-(propan-2-yl)-1H-1,2,3-benzotriazole]
6 | < 75% | <6.5 | < 75% | <5 | CC(C)n1nnc2cc(-c3nc(-c4ccc5nncn5c4)no3)ccc21 [Compound 128, 1-(propan-2-yl)-5-(3-{[1,2,4]triazolo[4,3-a]pyridin-6-yl}-1,2,4-oxadiazol-5-yl)-1H-1,2,3-benzotriazole]
7 | < 75% | <6.5 | < 75% | <5 | COc1ccc(-c2noc(-c3ccc4c(c3)nnn4C(C)C)n2)c2ccccc12 [Compound 129, 5-[3-(4-methoxynaphthalen-1-yl)-1,2,4-oxadiazol-5-yl]-1-(propan-2-yl)-1H-1,2,3-benzotriazole]
8 | < 75% | <6.5 | < 75% | <5 | COc1cccc(-c2nc(-c3ccc4c(c3)nnn4C3CCCC3)no2)c1 [Compound 130, 3-(1-cyclopentyl-1H-benzo[d][1,2,3]triazol-5-yl)-5-(3-methoxyphenyl)-1,2,4-oxadiazole]
9 | < 75% | <6.5 | < 75% | <5 | CC(C)n1nnc2cc(-c3noc(-c4ccc(COc5ccccc5)cc4)n3)ccc21 [Compound 131, 3-(1-isopropyl-1H-benzo[d][1,2,3]triazol-5-yl)-5-(4-(phenoxymethyl)phenyl)-1,2,4-oxadiazole]
10 | > 75% | >6.5 | > 75% | >5 | CC(C)n1nnc2cc(-c3nc(-c4ccccc4OC(F)(F)F)no3)ccc21 [Compound 132, 5-(1-isopropyl-1H-benzo[d][1,2,3]triazol-5-yl)-3-(2-(trifluoromethoxy)phenyl)-1,2,4-oxadiazole]
11 | < 75% | <6.5 | < 75% | <5 | Cc1ncc(-c2nc(-c3ccc4c(c3)nnn4C(C)C)no2)nc1C [Compound 133, 5-(5,6-dimethylpyrazin-2-yl)-3-(1-isopropyl-1H-benzo[d][1,2,3]triazol-5-yl)-1,2,4-oxadiazole]
12 | < 75% | <6.5 | < 75% | <5 | O=C(O)CCn1nnc2cc(-c3noc(-c4ccccc4Br)n3)ccc21 [Compound 134, 3-(5-(5-(2-bromophenyl)-1,2,4-oxadiazol-3-yl)-1H-benzo[d][1,2,3]triazol-1-yl)propanoic acid]
13 | < 75% | <6.5 | < 75% | <5 | CCc1ncc(-c2noc(-c3ccc4c(c3)nnn4C(C)C)n2)cn1 [Compound 135, 5-[3-(2-ethylpyrimidin-5-yl)-1,2,4-oxadiazol-5-yl]-1-(propan-2-yl)-1H-1,2,3-benzotriazole]
14 | < 75% | <6.5 | < 75% | <5 | COc1cc(C)c(-c2noc(-c3ccc4c(c3)nnn4C(C)C)n2)c(OC)c1 [Compound 136, 5-[3-(2,4-dimethoxy-6-methylphenyl)-1,2,4-oxadiazol-5-yl]-1-(propan-2-yl)-1H-1,2,3-benzotriazole]
15 | > 75% | >6.5 | > 75% | <5 | CCC1(CC)CC(=O)c2cc(-c3nsc(-c4cccnc4)n3)ccc2O1 [Compound 137, 2,2-diethyl-6-(5-(pyridin-3-yl)-1,2,4-thiadiazol-3-yl)chroman-4-one]
16 | > 75% | >6.5 | > 75% | >5 | COc1ccccc1-c1nc(-c2ccc3c(c2)nnn3C(C)C)ns1 [Compound 138, 5-[5-(2-methoxyphenyl)-1,2,4-thiadiazol-3-yl]-1-(propan-2-yl)-1H-1,2,3-benzotriazole]
17 | > 75% | >6.5 | > 75% | >5 | Cc1ccccc1-c1noc(-c2ccc3c(c2)nnn3CC(C)(C)O)n1 [Compound 139, 2-methyl-1-{5-[3-(2-methylphenyl)-1,2,4-oxadiazol-5-yl]-1H-1,2,3-benzotriazol-1-yl}propan-2-ol]
18 | > 75% | >6.5 | > 75% | >5 | Cc1ccsc1-c1noc(-c2ccc3c(c2)nnn3CC(C)(C)O)n1 [Compound 140, 2-methyl-1-{5-[3-(3-methylthiophen-2-yl)-1,2,4-oxadiazol-5-yl]-1H-1,2,3-benzotriazol-1-yl}propan-2-ol]
19 | < 75% | <6.5 | < 75% | <5 | CCC1(CC)CC(=O)c2cc(-c3nsc(-c4ccc5c(c4)nnn5C(C)C)n3)ccc2O1 [Compound 143, 2,2-diethyl-6-(5-(1-isopropyl-1H-benzo[d][1,2,3]triazol-5-yl)-1,2,4-thiadiazol-3-yl)chroman-4-one]
20 | – | <6.5 | – | >5 | COc1ccccc1-c1nnc(-c2ccc3c(c2)nnn3C(C)C)s1 [Compound 144, 5-[5-(2-methoxyphenyl)-1,3,4-thiadiazol-2-yl]-1-(propan-2-yl)-1H-1,2,3-benzotriazole]
21 | – | >6.5 | – | >5 | C=CCNc1ccc(-c2nc(-c3ccc4[nH]nnc4c3)no2)cc1C#N [Compound 145, 5-(3-(1H-benzo[d][1,2,3]triazol-5-yl)-1,2,4-oxadiazol-5-yl)-2-(allylamino)benzonitrile]
